For 12 molecules, MEC and IC50 results are on record in patent publication US20170233413A1, “SUBSTITUTED ANNULATED PYRIMIDINES AND USE THEREOF” (Bayer Pharma Aktiengesellschaft, priority 2014, published 2017).

Structures are written as SMILES.

Experiment [1] has as its target T1, recombinant guanylate cyclase reporter cell line (Rattus norvegicus, UniProt P19686+P20595).
T1 construct: expressed in transfected cells
T1 sequence (P19686 1-690): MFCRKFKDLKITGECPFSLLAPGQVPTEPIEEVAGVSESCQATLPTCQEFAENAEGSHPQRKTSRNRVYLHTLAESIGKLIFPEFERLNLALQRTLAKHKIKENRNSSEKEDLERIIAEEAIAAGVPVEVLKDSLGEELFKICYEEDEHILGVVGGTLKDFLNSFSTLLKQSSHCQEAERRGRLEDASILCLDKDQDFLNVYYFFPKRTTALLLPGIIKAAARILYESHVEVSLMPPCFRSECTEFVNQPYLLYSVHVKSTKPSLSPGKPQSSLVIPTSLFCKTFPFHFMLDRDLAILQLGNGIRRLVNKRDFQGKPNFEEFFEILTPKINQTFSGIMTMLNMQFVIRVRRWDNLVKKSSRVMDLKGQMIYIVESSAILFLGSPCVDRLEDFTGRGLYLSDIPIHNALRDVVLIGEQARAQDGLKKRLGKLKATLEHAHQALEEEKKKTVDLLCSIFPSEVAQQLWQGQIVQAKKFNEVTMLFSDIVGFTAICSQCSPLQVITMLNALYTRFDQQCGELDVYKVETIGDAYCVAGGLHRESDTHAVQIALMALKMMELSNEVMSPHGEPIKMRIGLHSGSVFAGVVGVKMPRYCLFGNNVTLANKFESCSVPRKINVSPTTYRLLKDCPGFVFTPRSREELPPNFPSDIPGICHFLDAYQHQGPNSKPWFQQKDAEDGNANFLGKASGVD
T1 sequence (P20595 1-619): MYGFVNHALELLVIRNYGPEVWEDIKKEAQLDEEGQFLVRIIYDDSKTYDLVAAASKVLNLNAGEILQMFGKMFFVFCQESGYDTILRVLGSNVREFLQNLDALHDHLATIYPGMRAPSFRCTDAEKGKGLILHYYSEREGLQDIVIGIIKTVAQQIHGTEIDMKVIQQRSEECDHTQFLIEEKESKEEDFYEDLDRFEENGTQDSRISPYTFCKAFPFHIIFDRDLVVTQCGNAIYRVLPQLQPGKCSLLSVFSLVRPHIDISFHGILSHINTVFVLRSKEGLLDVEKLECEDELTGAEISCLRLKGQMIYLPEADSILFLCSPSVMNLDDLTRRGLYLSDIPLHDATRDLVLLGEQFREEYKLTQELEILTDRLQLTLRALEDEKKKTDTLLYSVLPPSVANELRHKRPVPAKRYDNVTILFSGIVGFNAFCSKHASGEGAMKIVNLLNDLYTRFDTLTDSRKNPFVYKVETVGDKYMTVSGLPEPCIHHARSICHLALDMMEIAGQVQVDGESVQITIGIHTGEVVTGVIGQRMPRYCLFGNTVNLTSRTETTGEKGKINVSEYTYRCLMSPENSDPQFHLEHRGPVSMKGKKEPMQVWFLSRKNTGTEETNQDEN
Kind of experiment: Effect on a recombinant guanylate cyclase reporter cell line. The class given is cell-based. The following applies: MEC = minimum effective concentration; in some cases means of individual determinations. The method, boiled down:
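Cellular activity measured in a recombinant rat soluble guanylate cyclase reporter cell line. Values are minimum effective concentration (MEC), some given as means of individual determinations.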

Experiment [2] deals with T2, human phosphodiesterase 5 (PDE 5) (Homo sapiens, UniProt O76074).
T2 construct: PDE 5 preparations are obtained from human platelets by disruption; from tissue; host or cells: human platelets
Kind of experiment: Inhibition of human phosphodiesterase 5 (PDE 5). The experiment is classed as biochemical. The following applies: PDE 5 preparation from human platelets; in some cases means of individual determinations. The method, boiled down: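 Enzyme partially purified from human platelets by Mono Q ion exchange, diluted so that under 70% of substrate converts. [8-3H]cGMP at 0.025 μCi per well in Tris pH 7.5 with MgCl2/EDTA, 60 min at room temperature, yttrium SPA bead read-out. Final compound concentrations 4–0.0018 μM; IC50 from concentration–inhibition plot.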

On to `CONC(=O)c1nc(-c2nn(Cc3ccccc3F)c3ncccc23)nc2c1C(C)(C)C(=O)N2` [Example 79, 2-[1-(2-fluorobenzyl)-1H-pyrazolo[3,4-b]pyridin-3-yl]-N-methoxy-5,5-dimethyl-6-oxo-6,7-dihydro-5H-pyrrolo[2,3-d]pyrimidine-4-carboxamide], for which the MEC in experiment [1] worked out at 0.1 µM. Moreover, in experiment [2], the IC50 is 30 nM.
For `CC1(C)C(=O)Nc2nc(-c3nn(Cc4ncccc4F)c4ncc(F)cc34)nc(C(=O)NC(C3CC3)C3CC3)c21` [Example 34], the MEC in experiment [1] was 1 µM. In experiment [2], this molecule displayed an IC50 of 77 nM.
Taken in the same sequence, the figures for `CC1(C)C(=O)Nc2nc(-c3nn(Cc4ccccc4F)c4ncccc34)nc(C(=O)NCc3ccco3)c21` [Example 69, 2-[1-(2-fluorobenzyl)-1H-pyrazolo[3,4-b]pyridin-3-yl]-N-(furan-2-ylmethyl)-5,5-dimethyl-6-oxo-6,7-dihydro-5H-pyrrolo[2,3-d]pyrimidine-4-carboxamide] were 0.1 µM and 10 nM.
With `CC(C)(N)CNC(=O)c1nc(-c2nn(Cc3ccccc3F)c3ncc(F)cc23)nc2c1C(C)(C)C(=O)N2` [Example 30], the MEC in experiment [1] is 1 µM. It took 310 nM to reach half-maximal inhibition in experiment [2] (IC50).
Consider `CC1(C)C(=O)Nc2nc(-c3nn(Cc4ccccc4F)c4ncccc34)nc(C(=O)NCCOCC(F)(F)F)c21` [Example 96, 2-[1-(2-fluorobenzyl)-1H-pyrazolo[3,4-b]pyridin-3-yl]-5,5-dimethyl-6-oxo-N-[2-(2,2,2-trifluoroethoxy)ethyl]-6,7-dihydro-5H-pyrrolo[2,3-d]pyrimidine-4-carboxamide], for which, in experiment [1], the MEC was found to be 0.03 µM. In experiment [2], this molecule yielded an IC50 of 62 nM.
Taken in the same sequence, the figures for `CC1(C(F)(F)F)C(=O)Nc2nc(-c3nn(Cc4ncccc4F)c4ncc(F)cc34)nc(C(N)=O)c21` (single isomer, unassigned; ent-2) [Example 23, ent-2-{5-Fluoro-1-[(3-fluoropyridin-2-yl)methyl]-1H-pyrazolo[3,4-b]pyridin-3-yl}-5-methyl-6-oxo-5-(trifluoromethyl)-6,7-dihydro-5H-pyrrolo[2,3-d]pyrimidine-4-carboxamide (enantiomer B)] were 6.5 µM and 1300 nM.
Taken in the same sequence, the figures for `CN(CCO)C(=O)c1nc(-c2nn(Cc3ncccc3F)c3ncc(F)cc23)nc2c1C(C)(C)C(=O)N2` [Example 35] were 10 µM and 1300 nM.
For `CC(NC(=O)c1nc(-c2nn(Cc3ccccc3F)c3ncccc23)nc2c1C(C)(C)C(=O)N2)C1CC1` (racemic) [Example 104, rac-N-(1-cyclopropylethyl)-2-[1-(2-fluorobenzyl)-1H-pyrazolo[3,4-b]pyridin-3-yl]-5,5-dimethyl-6-oxo-6,7-dihydro-5H-pyrrolo[2,3-d]pyrimidine-4-carboxamide] the same measures were 0.1 µM and 11 nM.
Take `Cc1nc2c(cc1F)c(-c1nc3c(c(C(=O)NCC(C)(N)CC(F)F)n1)C(C)(C)C(=O)N3)nn2Cc1cccc(F)c1F` (single isomer, unassigned) [Example 58]: the MEC in experiment [1] stood at 1 µM. Moreover, in experiment [2], the concentration for half-maximal inhibition (IC50) worked out at 86 nM.
Taken in the same sequence, the figures for `CC(C)CCNC(=O)c1nc(-c2nn(Cc3ccccc3F)c3ncccc23)nc2c1C(C)(C)C(=O)N2` [Example 132, 2-[1-(2-fluorobenzyl)-1H-pyrazolo[3,4-b]pyridin-3-yl]-5,5-dimethyl-N-(3-methylbutyl)-6-oxo-6,7-dihydro-5H-pyrrolo[2,3-d]pyrimidine-4-carboxamide] were 0.3 µM and 33 nM.
For `CC(N)(CNC(=O)c1nc(-c2nn(Cc3ncccc3F)c3ncc(F)cc23)nc2c1C(C)(C)C(=O)N2)CC(F)F` (single isomer, unassigned) [Example 56], in experiment [1], the MEC was determined as 3 µM. In addition, in experiment [2], half-maximal inhibition (IC50) was put at 120 nM.
For `CN(CC1CC1)C(=O)c1nc(-c2nn(Cc3ncccc3F)c3ncc(F)cc23)nc2c1C(C)(C)C(=O)N2` [Example 33] the same measures were 0.1 µM and 110 nM.

One may read the IC50 as the point on the concentration scale where inhibition reaches its midpoint. A high value points to weaker potency in that assay.
